Consider twelve compounds from paper PMC7583830 (Molecules, 2020).

One may read the logD as the decadic logarithm of the distribution of all forms, ionised or not, between an organic phase and buffer at a given pH. As a reminder, the fraction unbound is the share of the substance not bound to proteins or other matrix.

The nature of data set [1]: Stability in fresh human serum (radio-HPLC). The class given is in vitro ADME. The note with it: 24 h incubation, 37 °C. As to the method:
In vitro stability studies for the characterization of the metabolic stability of the radiolabeled peptide analogs in human serum were carried out with [^177Lu]Lu-1, [^177Lu]Lu-M1, [^177Lu]Lu-M2, [^177Lu]Lu-M3 and [^177Lu]Lu-M4 (n = 2). Additional stability studies in rat liver and kidney homogenates were performed for [^177Lu]Lu-1 (n = 2). Tissue homogenates were prepared from dissected organs by homogenization for 1 min at RT (IKA-Werke, Staufen, Germany) in 20 mM HEPES buffer pH 7.3 (30% v/v). The radioligands were incubated in the different media at a concentration of 500 pmol/mL (corresponding to an activity of 6–11 MBq). After incubation at 37 °C at different time points for up to 24 h, a 100 µl sample was taken in duplicates and analyzed by HPLC. Samples obtained from human serum and rat homogenates were treated with ACN at a ratio of 1:1.5 (v/v) to precipitate proteins, centrifuged (14,000 rpm, 2 min, centrifuge 5424, Eppendorf AG, Germany) and diluted with water at a ratio of 1:1 (v/v). A 100 µl aliquot of this solution was injected into the radio HPLC system. The degradation of the radioligand was evaluated based on the radiochemical purity after radiolabeling and the percentage of intact radiopeptide observed during incubation in the different media.

Data set [2] is described as follows: Distribution coefficient (logD) in octanol/PBS. The note with it: octanol/PBS pH 7.4; read-out: logD. The class given is physicochemical. The protocol:
The mixture was vigorously vortexed at room temperature over a period of 15 min using a small shaker (MS3 Basic, IKA, Staufen, Germany) with speed of 1500 rpm.

The nature of data set [3]: Protein binding in human serum by size exclusion chromatography. The class given is in vitro ADME. The conditions noted are these: 24 h incubation. The protocol:
For protein binding assessment, the radiolabeled DOTA-peptides were incubated in fresh human serum at 37 °C (500 pmol/mL, n = 2). After 1, 4 and 24 h of incubation, two samples were taken for each time point and analyzed by Sephadex G-50 size-exclusion chromatography (GE Healthcare Illustra, Little Chalfont, UK). The percentage of protein binding was determined by measuring the column and the eluate with the gamma-counter.

A short description of data set [4]: Metabolic stability in vivo and radiometabolites (radio-HPLC of blood, urine, liver, kidney). Set-up: species or system BALB/c mice. The protocol:
Metabolic biodistribution studies were performed in accordance with the ethical standards of the institution and approved by the Austrian Ministry of Science (BMWFW-66.011/0072-V/3b/2019). These studies were carried out in 5- to 7-week-old female BALB/c mice (n = 3) injected with [^177Lu]Lu-1 via a lateral tail vein. To allow monitoring of the metabolites by radio-HPLC, mice were injected with 30 MBq corresponding to 0.8 nmol total peptide. The mice were euthanized by cervical dislocation after different time points of 10 min, 30 min and 1 h p.i. and the urine and a venous blood sample were collected at the time of sacrifice. Liver and kidneys were dissected and homogenized in 20 mM HEPES buffer pH 7.3 at a ratio of 1:1 (v/v) with an Ultra-Turrax T8 homogenizer (IKA-Werke, Staufen, Germany) for 1 min at RT. Before radio-HPLC analysis, the samples (except urine) were treated with ACN at a ratio of 1:1 (v/v) to precipitate proteins, centrifuged at 2000× g for 2 min and diluted with water at a ratio of 1:1 (v/v). For HPLC analysis of the samples, the analytical HPLC system described above with a flow rate of 1 mL/min was used together with the following optimized water/ACN/0.1% TFA gradient to allow a better separation of [^177Lu]Lu-1 and the different radiometabolites: 0–7 min 1–7% ACN, 7–8 min 7–10% ACN, 8–18 min 10–18% ACN, 18–20 min 18–32% ACN, 20–27 min 32% ACN, 27–37 min […], 37–40 min 80% ACN, 40–40.1 min 80–1% ACN, 40.1–45 min 1% ACN. Urine was measured with the low-sensitivity loop of the radiodetector. The remaining samples were analyzed with the high-sensitivity loop due to the lower radioactivity present in blood, liver and kidney homogenate. To quantify the percentage of intact [^177Lu]Lu-1 and [^177Lu]Lu-M1 showing some overlap in the radiochromatogram when using the high-sensitivity loop of the radiodetector, the two radiopeptides were co-injected at different known ratios to enable a more accurate separation and integration of the two peaks (see supporting Figure S4). Mice from the metabolic biodistribution studies were subjected to a further dissection of all remaining tissues (blood, lung, heart, femur, spleen, muscle, intestine, pancreas and stomach). All organs, also including liver and kidneys, were weighed, and their radioactivity was measured in the gamma counter together with a standard and the residual body. To quantify the uptake of radioactivity in liver and kidneys, a part of liver and kidney homogenate was measured in the gamma counter to extrapolate the radioactivity for the whole organ.

In data set [5] the test system is neprylisin-1 and neprylisin-2. In words: Incubation in vitro with neprylisin-1 and neprylisin-2. The conditions noted are these: cited from earlier work.
Another data set deals with A431-CCK2R xenografts. The conditions noted are these: mouse, in vivo; cited from earlier work.
On the set-up of data set [6]: method as in PMID 29896292. The note with it: radiolabeled with different radiometals; cited from earlier work.
Details of data set [7]: method as in doi:10.2174/1874471010902040304. The note with it: kidney homogenate; labeled with indium-111; cited from earlier work.
The nature of another data set: fresh human serum. The note with it: 37 °C, up to 24 h.
The nature of data set [8]: blood of BALB/c mice injected with [^177Lu]Lu-1. The note with it: female BALB/c mice, up to 1 h p.i.
Data set [9] is described as follows: urine of BALB/c mice injected with [^177Lu]Lu-1. The note with it: female BALB/c mice, up to 1 h p.i.
Data set [10] can be described thus: soluble phase extracted from liver homogenate of BALB/c mice injected with [^177Lu]Lu-1. The conditions noted are these: female BALB/c mice, up to 1 h p.i.
Data set [11] in a line: soluble phase extracted from kidney homogenate of BALB/c mice injected with [^177Lu]Lu-1. The conditions noted are these: female BALB/c mice, up to 1 h p.i.
Data set [12] is described as follows: blood of patients injected with ^111In-labeled DOTA-MG11. The note with it: up to 10 min after injection; cited from earlier work.
The mark [13] stands for this setting: blood, 30 min p.i., mice injected i.v. with [177Lu]Lu-1.
[14] abbreviates: blood, 60 min p.i., mice injected i.v. with [177Lu]Lu-1.
[15] abbreviates: blood, different time points up to 1 h p.i.

Where “and” joins values, the source holds several entries; their conditions need not be identical. Identical values can stand only once. Entries after “also recorded” stand apart in the source; their conditions may differ. Where a SMILES comes first, the peptide text is derived from it. Where no end group is shown, it is not given here. [ ]: non-standard residue; d: D form. The star is where a group is joined. DOTA = O=C(O)CN1CCN(CC(=O)O)CCN(CC(=O)*)CCN(CC(=O)O)CC1; NMeNle = CCCC[C@H](NC)C(=O)O Where only a bound is given, the exact number is not on record here.

`CCCC[C@@H](C(=O)N[C@@H](CC(=O)O)C(=O)O)N(C)C(=O)[C@H](Cc1c[nH]c2ccccc12)NC(=O)CNC(=O)[C@H](Cc1ccc(O)cc1)NC(=O)[C@@H]1CCCN1C(=O)[C@@H](CCC(=O)O)NC(=O)CN1CCN(CC(=O)O)CCN(CC(=O)O)CCN(CC(=O)O)CC1` [[^177Lu]Lu-M2, metal not drawn] ({DOTA}-[dE]PYGW[NMeNle]D-OH; C-terminus assumed): the intact radiopeptide in [1] amounted to 98.1 ± 0.3%. Further, in [2], the pH-dependent lipophilicity (logD) was -4.18 ± 0.17. Also, the fraction unbound in [3] was 0.519. For the same compound, the “percentage of intact radiopeptide / radiometabolite” value in data set [4] (setting [13]) is 3.8%; in data set [4] (setting [14]), 7.3%; in data set [4] (kidney, 30 min p.i.) it was 20.7%; in data set [4] (kidney, 60 min p.i.), 12% and 12.3%; in data set [4] (liver, 30 min p.i.), 7.2%; in data set [4] (liver, 60 min p.i.), 6.9%. The “percentage of intact radiopeptide / radiometabolite” value worked out at 40.5% in data set [4] (urine, 30 min p.i.) and 40.3% in [4] (urine, 60 min p.i.). The amount of radiometabolite in data set [4] (setting [15]) is reported as less than 8%; in data set [4] (urine, time point not stated), ~ 40%.
Turning to `CCCC[C@@H](C(=O)O)N(C)C(=O)[C@H](Cc1c[nH]c2ccccc12)NC(=O)CNC(=O)[C@H](Cc1ccc(O)cc1)NC(=O)[C@@H]1CCCN1C(=O)[C@@H](CCC(=O)O)NC(=O)CN1CCN(CC(=O)O)CCN(CC(=O)O)CCN(CC(=O)O)CC1` [[^177Lu]Lu-M3, metal not drawn] ({DOTA}-[dE]PYGW[NMeNle]-OH; C-terminus assumed), the intact radiopeptide in [1] is recorded as 29.7 ± 0.8%; in data set [1] (listed as radiolabeled M3), “less than 30%”. Moreover, in data set [2], the logD is -4.13 ± 0.11. The compound also had an unbound share (fraction unbound) in [3] of 0.766. In addition, the “percentage of intact radiopeptide / radiometabolite” value in data set [4] (setting [13]) was 17.0%; in data set [4] (setting [14]) it was 20.4%; in data set [4] (kidney, 30 min p.i.), 7.9%; in data set [4] (liver, 30 min p.i.), 8.5%; in data set [4] (liver, 60 min p.i.) it was 5.6%; in [4] (urine, 30 min p.i.), 9.5%. In [4] (urine, 60 min p.i.), the “percentage of intact radiopeptide / radiometabolite” value is listed as 9.8%. In data set [4] (setting [15]), the amount of radiometabolite is less than 21%.
As for “DOTA-(DGlu)6-Ala-Tyr-Gly-Trp-Met-Asp-Phe-NH2”, the cleaved bond result in data set [5] is on record as “Asp-Phe”.
Regarding “DOTA-(DGlu)6-Ala-Tyr-Gly-Trp-Met-Asp-Phe-NH2 (AYGWMDF; DOTA-(D-Glu)6 N-terminus, C-amide; radiolabel; printed: Ala-Tyr-Gly-Trp-Met-Asp-Phe-) [PP-F11]”, the tumor uptake in the data set on A431-CCK2R xenografts is ~ 6.7 % IA/g.
“DOTA-(DGlu)6-Ala-Tyr-Gly-Trp-Nle-Asp-Phe-NH2”: in data set [5], the not cleaved entry is “seemed to be resistant against neprylisins”.
For the compound “DOTA-(DGlu)6-Ala-Tyr-Gly-Trp-Nle-Asp-Phe-NH2 [PP-F11N]”, in the data set on A431-CCK2R xenografts, the tumor uptake was 6.9 % IA/g.
In the case of “DOTA-DGlu-Ala-Tyr-Gly-Trp-(N-Me)Nle-Asp-1Nal-NH2 [DOTA-MGS5]”, the cell uptake in [6] is reported as more than 50%. For the same compound, the tumor-to-kidney ratio in the data set with A431-CCK2R xenografts is 4–6.
In the case of “DOTA-DGlu-Ala-Tyr-Gly-Trp-Met-Asp-Phe-NH2 ({DOTA}-[dE]AYGWMDF-NH2; also: 111In complex) [DOTA-MG11, truncated MG analog, results quoted for the indium-111 labeled form]”, the “time to complete degradation” value in data set [7] is listed as not above 10 min.
In the data set “fresh human serum”, DOTA-DGlu-Pro-Tyr-Gly-Trp-(N-Me)Nle-Asp gave a not cleaved of 98.1 ± 0.3% after 24 h incubation.
Regarding “DOTA-DGlu-Pro-Tyr-Gly-Trp-(N-Me)Nle-Asp-1Nal-NH2”, the not cleaved in the data set “fresh human serum” was 96.2 ± 1.3% intact peptide after 24 h incubation; in [8], “M8 not found in any of the tissues examined”; in data set [9] it was “M8 not found in any of the tissues examined”; in data set [10], “M8 not found in any of the tissues examined”; in data set [11] it was “M8 not found in any of the tissues examined”. Also, the cleaved bond in data set [8] was 1Nal-NH2, minor and Asp-1Nal, minor and (N-Me)Nle-Asp, minor and Gly-Trp, minor; in data set [9], 1Nal-NH2, minor and Asp-1Nal, major and (N-Me)Nle-Asp and Gly-Trp, major; in data set [10], 1Nal-NH2 and Asp-1Nal and (N-Me)Nle-Asp and Trp-(N-Me)Nle, minor and Gly-Trp and Tyr-Gly; in [11], 1Nal-NH2 and Asp-1Nal and (N-Me)Nle-Asp and Gly-Trp and Tyr-Gly and Pro-Tyr, minor, 60 min.
Take {DOTA}-[dE]AYGWMDF-NH2: the fragment found result in data set [12] was “DOTA-DGlu-Ala-Tyr, 10 min after injection”. Moreover, in data set [5], the cleaved bond entry is listed as “Asp-Phe; also recorded: Gly-Trp”.
Take {DOTA}-[dE]PYGW: the not cleaved in “fresh human serum” was determined as 98.4 ± 0.01% after 24 h incubation.
